The record followed here is article PMC9492458, “Development and structure–activity relationships of tanshinones as selective 11β-hydroxysteroid dehydrogenase 1 inhibitors” (Natural Products and Bioprospecting, 2022).

What is called IC50 is the concentration that inhibits the measured activity by half.

The target in assay [1] is T1, mouse 11β-HSD2 (Mus musculus, UniProt P51661).
T1 sequence (P51661 1-386): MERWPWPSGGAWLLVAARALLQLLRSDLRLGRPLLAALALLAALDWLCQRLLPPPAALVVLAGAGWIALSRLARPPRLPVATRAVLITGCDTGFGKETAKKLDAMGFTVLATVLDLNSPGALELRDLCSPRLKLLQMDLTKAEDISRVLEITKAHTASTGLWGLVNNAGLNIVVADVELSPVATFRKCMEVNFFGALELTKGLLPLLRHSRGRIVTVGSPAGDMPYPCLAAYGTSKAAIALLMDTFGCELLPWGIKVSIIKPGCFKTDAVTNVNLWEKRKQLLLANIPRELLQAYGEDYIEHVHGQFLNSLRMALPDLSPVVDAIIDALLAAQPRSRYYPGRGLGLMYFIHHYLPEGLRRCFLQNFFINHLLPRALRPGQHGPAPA
The assay can be described thus: scintillation proximity assay (SPA), microsomes of HEK-293 cells transfected with mouse 11β-HSD2. For orientation: Scintillation proximity formats need no separation of bound from free tracer.
Description: (§1) With diverse tanshinones in hand, inhibition of human and mouse 11β-HSD1 enzymatic potency was measured by scintillation proximity assay (SPA) using microsomes containing 11β-HSD1 [46, 47]. Results are reported as the average of two or three independent experiments at each concentration.
(§2) The SPA was used to screen for inhibitors of 11β-HSDs [48], with the microsome fractions prepared from the HEK-293 cells stably transfected with either human or mouse 11β-HSD1 or 11β-HSD2 as the enzyme source. […] Reactions were initiated by the addition of 11β-HSD1 or 11β-HSD2, enzyme. […] The plates were incubated under plastic film on an orbital shaker for 120 min at room temperature before counting. The amount of [^3H]-cortisol generated in 11β-HSD1 enzyme reaction or remaining from the 11β-HSD2 enzyme reaction was captured by the beads and determined in a microplate liquid scintillation counter. The % inhibition was calculated relative to a non-inhibited control. Data were obtained from two or three independent experiments. IC50 values were calculated from concentration–response curves by a non-linear regression analysis using Prism Version 6.

Assay [2] has as its target T2, human 11β-HSD2 (Homo sapiens, UniProt P80365).
T2 sequence (P80365 1-405): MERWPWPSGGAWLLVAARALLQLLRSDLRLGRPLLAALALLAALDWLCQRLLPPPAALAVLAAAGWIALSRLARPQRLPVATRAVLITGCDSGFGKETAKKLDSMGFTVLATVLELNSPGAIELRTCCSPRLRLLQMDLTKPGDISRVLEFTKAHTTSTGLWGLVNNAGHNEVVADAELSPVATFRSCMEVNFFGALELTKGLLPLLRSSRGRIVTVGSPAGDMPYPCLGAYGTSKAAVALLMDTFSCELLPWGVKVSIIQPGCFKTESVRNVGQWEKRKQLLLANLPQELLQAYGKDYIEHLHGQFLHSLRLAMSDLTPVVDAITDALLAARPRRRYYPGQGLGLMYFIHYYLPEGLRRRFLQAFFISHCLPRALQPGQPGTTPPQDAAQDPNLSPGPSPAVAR
The assay can be described thus: scintillation proximity assay (SPA), microsomes of HEK-293 cells transfected with human 11β-HSD2.
Description: as §1, §2

The target in assay [3] is mouse 11β-HSD1 (Mus musculus, UniProt P50172). The assay can be described thus: scintillation proximity assay (SPA), microsomes of HEK-293 cells transfected with mouse 11β-HSD1. Conditions: for Mouse SI (selectivity index): SI = IC50(HSD2)/IC50(HSD1); for inhibition at 1 µM: read-out: Inhibitory ratio m-HSD1, at 1.0 μM, averages of three determinations.
Sequence of mouse 11β-HSD1 (P50172 whole entry): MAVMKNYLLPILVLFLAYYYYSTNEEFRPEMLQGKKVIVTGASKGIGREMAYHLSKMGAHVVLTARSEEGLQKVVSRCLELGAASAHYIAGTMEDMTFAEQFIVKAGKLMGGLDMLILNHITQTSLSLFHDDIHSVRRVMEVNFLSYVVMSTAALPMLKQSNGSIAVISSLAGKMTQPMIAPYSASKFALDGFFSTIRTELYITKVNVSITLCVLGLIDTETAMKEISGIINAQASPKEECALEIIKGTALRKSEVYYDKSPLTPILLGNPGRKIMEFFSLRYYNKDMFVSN
Description: as §1, §2
Assay [4] concerns the target human 11β-HSD1 (Homo sapiens, UniProt P28845). In words: scintillation proximity assay (SPA), microsomes of HEK-293 cells transfected with human 11β-HSD1. Conditions: for Human SI (selectivity index): SI = IC50(HSD2)/IC50(HSD1); for inhibition at 1 µM: read-out: Inhibitory ratio h-HSD1, at 1.0 μM, averages of three determinations.
Description: as §1, §2
The target of assay [5] is T3, 11β-HSD1 in liver (Mus musculus, UniProt P50172).
T3 construct: from tissue
T3 sequence (P50172 whole entry): as above
In words: Measurement of 11β-HSD1 activity in liver of ob/ob mice. The class given is in vivo. To be noted: single oral dose 300 mg/kg. As for the experimental part:
After single oral administration of 1, 17 or 30 at dose of 300 mg/kg to ob/ob mice, the enzymatic activity of 11β-HSD1 in liver was measured.
B6.V-Lepob/Lepob mice (Jackson Laboratory, Bar Harbor, ME, USA) were bred at the Shanghai Institute of Materia Medica, Chinese Academy of Sciences. All mice were housed in a specific, pathogen-free class laboratory and were maintained at a controlled room temperature (22–24 °C) under a 12 h light–dark cycle with free access to water and food. The animal experiments were conducted in accordance with the guides by the Institutional Animal Care and Utilization Committee (IACUC) of Shanghai Institute of Materia Medica (SIMM), Chinese Academy of Sciences (CAS). The protocol was approved by the IACUC, SIMM, CAS with accreditation number of 2017-08-LY-67. All animal experiment complied with the ARRIVE guidelines for the care and use of laboratory animals.
Ob/ob mice (10 weeks’ old) were given a single dose of 1, 17, 30 (300 mg/kg) or vehicle (0.5% carboxymethyl cellulose, CMC), p.o. After 4 h and 8 h, animals were euthanized with an i.p injection of sodium pentobarbital (60 mg/kg) and the livers were isolated and stored as described above. The liver tissue was homogenized (1 mg/mL) in cold homogenization buffer, and […] of liver homogenates was used to analyze the 11β-HSD1 activity by SPA, as previously described.

Assay [6] deals with T4, 11β-HSD1 in 3T3-L1 adipocytes (Mus musculus, UniProt P50172).
T4 construct: endogenous in cells; host or cells: 3T3-L1 adipocytes
T4 sequence (P50172 whole entry): as above
The assay can be described thus: 11β-HSD1 activity assay in 3T3-L1 adipocytes. Conditions: for IC50: 1 h incubation, averages of three determinations, read-out: IC50, cellular assay on 3T3-L1 adipocyte against 11β-HSD1; for Emax: inhibition relative to MK544 10 μM, read-out: Max effect. The class given is cell-based. As for the experimental part: 11β-HSD1 enzyme inhibition in adipose tissue is believed to be important for achieving efficacy in vivo [11, 12]. Derivatives with potent enzymatic potency and excellent selectivity profiles (13, 14, 17, 28a, 28b and 30) were also evaluated their 11β-HSD1 inhibition in 3T3-L1 adipocyte.
The reductase activity of 11β-HSD1 in intact 3T3-L1 adipocytes was determined by measuring the rate of conversion of cortisone to cortisol. To explore the effect of compounds on 11β-HSD1 reductase activity, 3T3-L1 adipocytes were incubated for 1 h at 37 °C in serum-free DMEM containing 6.25 nmol/L [1,2-(N)^3H]-cortisone and different concentrations of compounds, according to experimental design. 0.1% DMSO was set as the vehicle control and MK544 was set as the positive control. At the end of the incubation, 80 μL of medium was pipetted into a transparent bottom 96-well plate, and 35 μL of SuperBlock Blocking Buffer containing 10 g/L of protein A-coated yttrium silicate beads and 3 mg/L of anti-cortisol antibodies was added. The mixtures were shaken in the dark for 2 h and then used for liquid scintillation readings. The inhibition effect was calculated by the following equation: Inhibition%=Data(compound)-Data(DMSO Vehicle)/Data(MK54410μM)-Data(DMSO Vehicle)×100%.

Where two headings read alike, the source gives them in different places.

Sequence of human 11β-HSD1 (P28845 whole entry): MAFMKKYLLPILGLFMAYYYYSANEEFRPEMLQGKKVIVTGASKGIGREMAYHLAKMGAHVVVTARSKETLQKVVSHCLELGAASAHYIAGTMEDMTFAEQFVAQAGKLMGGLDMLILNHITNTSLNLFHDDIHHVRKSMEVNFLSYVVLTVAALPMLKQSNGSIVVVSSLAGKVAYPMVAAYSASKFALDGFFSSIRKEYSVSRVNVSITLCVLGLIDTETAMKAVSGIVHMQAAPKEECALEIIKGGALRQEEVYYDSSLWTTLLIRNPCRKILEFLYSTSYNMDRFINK

In the case of `Cc1coc2c1C(=O)C(=O)c1c-2ccc2c1CCCC2(C)C` [Compound 1, tanshinone IIA], the half-maximal inhibitory concentration (IC50) was greater than 1000 µM in assay [1]; greater than 1000 µM in assay [1] (read-out: Mouse (IC50) 11β-HSD2, Table 3, averages of two determinations); 135 ± 72.5 µM in assay [2]; 0.0322 ± 0.0025 µM in assay [3]; 0.0353 ± 0.0154 µM in assay [4]; 2 ± 0.6 µM in assay [6]. Besides, the “Mouse SI (selectivity index)” value is > 31,250 in assay [3] (Table 1) and > 31,055.9 in assay [3] (Table 3). The inhibition at 1 µM was 89.6 ± 0.6% in assay [3] and 76.6 ± 1.3% in assay [4]. Moreover, in assay [4] (Table 1), the “Human SI (selectivity index)” value was determined as 3838. Further, the figures for the “decrease in 11β-HSD1 activity in liver” value in assay [5] (4 h after treatment) and in assay [5] (8 h after treatment) were 32.9% and 48.4%, respectively. Also, in assay [6], the Emax came out at 104 ± 1%.
`Cc1coc2c1C(=O)C(=O)c1c-2ccc2c1CCC(=O)C2(C)C` [Compound 17]: the IC50 in assay [1] was greater than 100 µM; in assay [2], 5.9 ± 2.3 µM; in assay [3] it was 0.0069 ± 0.0007 µM; in assay [4] it was 0.21 µM; in assay [6] it was 1.4 ± 0.1 µM. Also, the “Mouse SI (selectivity index)” value in assay [3] (Table 3) is > 14,492.7. The inhibition at 1 µM in assay [3] came out at 84.6 ± 1.4%; in assay [4], 63.5 ± 3.2%. Moreover, the “Human SI (selectivity index)” value in assay [4] (Table 3) was 28.0. Also, the “decrease in 11β-HSD1 activity in liver” value in assay [5] (8 h after treatment) amounted to 38.5%. Besides, in assay [6], the Emax was determined as 90 ± 0.4%.
For `CC1(C)CCCc2c1ccc1c2C(=O)C(=O)c2c(CO)coc2-1` [Compound 30], the IC50 was greater than 100 µM in assay [1], 0.0222 ± 0.0006 µM in assay [3], 0.0578 ± 0.013 µM in assay [4] and 4.4 ± 0.1 µM in assay [6]. In addition, the “Mouse SI (selectivity index)” value in assay [3] (Table 3) is greater than 4510.6. Also, the inhibition at 1 µM in assay [3] is 98.6 ± 0.7%; in assay [4], 82 ± 2.7%. In addition, the “decrease in 11β-HSD1 activity in liver” value in assay [5] (8 h after treatment) is 41.2%. Further, the Emax in assay [6] was found to be 105%.
